# Where “and” joins values, the source holds several entries; their conditions need not be identical. Equal values may be shown once.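 These data come from cells grown in 96-well plates and exposed to compound for 48 hours at five concentrations. At the GI50, growth is halved. TGI: concentration producing complete growth inhibition.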
# Assays:
# Assay in all cases: NCI anticancer screen, dose series, 48 h
# CCRF-CEM leukemia = system: CCRF-CEM leukemia
# EKVX NSCLC = system: EKVX NSCLC
# HOP-62 NSCLC = system: HOP-62 NSCLC
# HOP-92 NSCLC = system: HOP-92 NSCLC
# HS 578T breast = system: HS 578T breast
# K-562 leukemia = system: K-562 leukemia
# NCI-H23 lung = system: NCI-H23 lung
# NCI-H460 lung = system: NCI-H460 lung
# SN12C renal = system: SN12C renal
# SNB-19 CNS = system: SNB-19 CNS
SMILES,GI50 (CCRF-CEM leukemia),TGI (CCRF-CEM leukemia),GI50 (EKVX NSCLC),TGI (EKVX NSCLC),GI50 (HOP-62 NSCLC),TGI (HOP-62 NSCLC),GI50 (HOP-92 NSCLC),TGI (HOP-92 NSCLC),GI50 (HS 578T breast),TGI (HS 578T breast),GI50 (K-562 leukemia),TGI (K-562 leukemia),GI50 (NCI-H23 lung),TGI (NCI-H23 lung),GI50 (NCI-H460 lung),TGI (NCI-H460 lung),GI50 (SN12C renal),TGI (SN12C renal),GI50 (SNB-19 CNS),TGI (SNB-19 CNS)
Cc1ccc(Nc2oc(-c3ccccc3)nc2[P+](c2ccccc2)(c2ccccc2)c2ccccc2)cc1,547 nM,4.77 µM,0.616 µM,2.38 µM,1.34 µM,3.24 µM,0.209 µM,1.02 µM,1.41 µM,3.99 µM,324 nM,1.44 µM,0.458 µM,2.08 µM,0.804 µM,2.2 µM,0.888 µM,2.51 µM,1.04 µM,2.94 µM
COc1ccc(/C(=C\C=C(C#N)C#N)Sc2nc3ccccc3s2)cc1,–,–,10.5 µM,22 µM,8.16 µM,16.7 µM,0.717 µM,4.14 µM,31.2 µM,> 50 µM,1580 nM,> 50 µM,9.46 µM,20 µM,11.7 µM,> 50 µM,7.06 µM,32.8 µM,12.6 µM,29.6 µM
C[C@@]12CCC[C@@](C)(C(=O)O)C1CC[C@]13CC(=O)[C@](CO)(C1)[C@@H](O)CC32 (stereo partly specified),–,–,> 100 µM,> 100 µM,> 100 µM,> 100 µM,> 100 µM,> 100 µM,> 100 µM,> 100 µM,> 100000 nM,> 100 µM,> 100 µM,> 100 µM,> 100 µM,> 100 µM,> 100 µM,> 100 µM,> 100 µM,> 100 µM
O=C1c2cccc3cccc(c23)C(=O)N1CCCCCN1CCN(CCCCCOc2ccc(-c3nc4ccc(N5CCOCC5)cc4[nH]3)cc2)CC1,1310 nM,8.97 µM,> 47.1 µM,> 74.6 µM,35.7 µM,79.2 µM,25.1 µM,> 58.2 µM,21.8 µM,45.4 µM,135 nM,–,21.2 µM,46.6 µM,16.8 µM,30.8 µM,> 100 µM,> 100 µM,> 46.1 µM,> 60 µM
CC1(Br)Cc2ccccc2C1=O (stereo unspecified),318 nM,6.75 µM and 1.82 µM,–,11.2 µM,–,29.1 µM,–,16.5 µM,–,38.6 µM,571 nM,–,1.88 µM,5.38 µM,> 100 µM,> 100 µM,4.55 µM,14.8 µM,–,81.8 µM
O=[N+]([O-])c1cccc2ccc(N/N=C/c3ccccc3O)nc12,–,–,> 100 µM,> 100 µM,> 100 µM,> 100 µM,> 100 µM,> 100 µM,72.4 µM,> 100 µM,1460 nM,> 100 µM,> 100 µM,> 100 µM,> 100 µM,> 100 µM,> 100 µM,> 100 µM,> 100 µM,> 100 µM
O=C(O)c1ccc(C(=O)O)c2c(C(=O)O)ccc(C(=O)O)c12,–,–,–,> 100 µM,–,> 100 µM,–,> 100 µM,–,> 100 µM,–,> 100 µM,–,> 100 µM,–,> 100 µM,–,> 100 µM,–,> 100 µM

# Source: PubChem BioAssay (NCI)
